pIC50: −log10 of the molar value.
Target: T1, full-length human BTK (Homo sapiens, UniProt Q06187)
T1 construct: 2.5× stocks of full-length human BTK (08-080) from CarnaBio USA, Inc; purchased CarnaBio USA, Inc., Natick, Mass; 08-080
Experiment: BTK IC50 Enzyme Assay (Assay A), microfluidic off-chip mobility shift kinase assay
Format: biochemical
Settings: kinKDR peptide substrate, 90 min at 27° C.
Method: BTK IC50 Enzyme Assay (Assay A)
The following describes a microfluidic, off-chip mobility shift kinase assay used to measure inherent potency of compounds against BTK enzyme.
2.5× stocks of full-length human BTK (08-080) from CarnaBio USA, Inc., Natick, Mass., 1.6×ATP and appropriate kinKDR peptide substrate (FITC-AHA-EEPLYWSFPAKKK10 NH2) were prepared in kinase reaction buffer consisting of 25 mM MgCl2, 0.015% Brij-35 (30%), 100 mM Hepes, pH 7.5, and 10 mM DTT.
5 uL of enzyme buffer and 7.5 uL of ATP/kinKDR peptide substrate mix were added to Matrix (#115304) 384-well, sterile, polypropylene plates (Thermo Fisher Scientific, 15 Hudson, N.H.) with 125 nL of serially diluted compounds prepared in 100% DMSO, and incubated for 90 min. at 27° C. Following the incubation period, reactions were stopped by adding 60 uL stop buffer consisting of 100 mM Hepes, pH 7.5, 0.015% Brij-35 (30%), 0.277% Coating Reagent #3 (Caliper Life Sciences, Mountain View, Calif.), 5% DMSO. Stopped reactions were monitored at −2 PSI, −3000 V/−700 V in a LabChip 3000 plate 20 reader from Caliper Life Sciences, a PerkinElmer Company (Hopkinton, Mass.), and the activity was measured by off-chip mobility shift assay measuring the charge/mass difference between substrate and product resulting from peptide phosphorilation. IC50 and efficacy were determined by plotting log [Inhibitor] vs. % Activity in GeneData Screener (Basel, Switzerland).

T1 sequence (Q06187 whole entry): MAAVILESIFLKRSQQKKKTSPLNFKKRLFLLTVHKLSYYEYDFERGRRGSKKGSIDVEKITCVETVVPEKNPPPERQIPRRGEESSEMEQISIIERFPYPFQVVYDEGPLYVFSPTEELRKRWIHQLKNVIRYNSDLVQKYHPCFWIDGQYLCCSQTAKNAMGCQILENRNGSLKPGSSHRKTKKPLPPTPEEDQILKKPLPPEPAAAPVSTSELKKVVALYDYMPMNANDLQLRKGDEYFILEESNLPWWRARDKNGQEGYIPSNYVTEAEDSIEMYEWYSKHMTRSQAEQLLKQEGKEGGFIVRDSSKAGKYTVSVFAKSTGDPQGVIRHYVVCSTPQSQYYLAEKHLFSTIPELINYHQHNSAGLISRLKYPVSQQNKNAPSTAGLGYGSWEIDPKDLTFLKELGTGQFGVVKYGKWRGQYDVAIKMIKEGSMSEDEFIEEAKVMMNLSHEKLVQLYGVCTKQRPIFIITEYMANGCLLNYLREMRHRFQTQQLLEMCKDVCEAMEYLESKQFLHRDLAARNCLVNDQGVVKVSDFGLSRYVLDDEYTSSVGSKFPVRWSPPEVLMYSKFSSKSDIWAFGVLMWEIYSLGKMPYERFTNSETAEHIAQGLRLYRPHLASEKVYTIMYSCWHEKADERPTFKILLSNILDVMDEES

pIC50, > 7.00:
CN(C)C/C=C/C(=O)N1CCC(n2ccc3ncnc(Oc4ccc(Oc5ccccc5)cc4)c32)CC1 [Compound 1, (E)-4-(dimethylamino)-1-(4-(4-(4-phenoxyphenoxy)-5H-pyrrolo[3,2-d]pyrimidin-5-yl)piperidin-1-yl)but-2-en-1-one]
C=CC(=O)N1CCC(n2ccc3ncnc(Oc4ccc(Oc5ccccc5)cc4)c32)CC1 [Compound 2, 1-(4-(4-(4-phenoxyphenoxy)-5H-pyrrolo[3,2-d]pyrimidin-5-yl)piperidin-1-yl)prop-2-en-1-one]
C=CC(=O)N1CC(n2ccc3ncc(-c4ccc(Oc5ccccc5)cc4)cc32)C1 [Compound 4, 1-(3-(6-(4-phenoxyphenyl)-1H-pyrrolo[3,2-b]pyridin-1-yl)azetidin-1-yl)prop-2-en-1-one]
C=CC(=O)N1CC[C@H](n2ccc3ncnc(Oc4ccc(Oc5ccccc5)cc4)c32)C1 [Compound 5, (S)-1-(3-(4-(4-phenoxyphenoxy)-5H-pyrrolo[3,2-d]pyrimidin-5-yl)pyrrolidin-1-yl)prop-2-en-1-one]
C=CC(=O)N1CC(n2ccc3ncnc(Nc4ccc(Oc5ccccc5)cc4)c32)C1 [Compound 6, 1-(3-(4-((4-phenoxyphenyl)amino)-5H-pyrrolo[3,2-d]pyrimidin-5-yl)azetidin-1-yl)prop-2-en-1-one]
C=CC(=O)N1CC(n2ccc3ncc(-c4ccc(Oc5ccccc5)cc4)nc32)C1 [Compound 7, 1-(3-(3-(4-phenoxyphenyl)-5H-pyrrolo[2,3-b]pyrazin-5-yl)azetidin-1-yl)prop-2-en-1-one]
C=CC(=O)N[C@H]1C[C@H](n2ccc3ncnc(Oc4ccc(Oc5ccccc5)cc4)c32)C1 [Compound 8, N-(trans-3-(4-(4-phenoxyphenoxy)-5H-pyrrolo[3,2-d]pyrimidin-5-yl)cyclobutyl)acrylamide]
C=CC(=O)N1CC[C@@H]1Cn1ccc2ncnc(Oc3ccc(Oc4ccccc4)cc3)c21 [Compound 9, (R)-1-(2-((4-(4-phenoxyphenoxy)-5H-pyrrolo[3,2-d]pyrimidin-5-yl)methyl)azetidin-1-yl)prop-2-en-1-one]
C=CC(=O)N[C@H]1C[C@@H](n2ncc3ncnc(Oc4ccc(Oc5ccccc5)cc4)c32)C1 [Compound 11, N-((1s,3s)-3-(7-(4-phenoxyphenoxy)-1H-pyrazolo[4,3-d]pyrimidin-1-yl)cyclobutyl)acrylamide]
C=CC(=O)N1CCC(n2ncc3ncnc(Oc4ccc(Oc5ccccc5)cc4)c32)CC1 [Compound 12, 1-(4-(7-(4-phenoxyphenoxy)-1H-pyrazolo[4,3-d]pyrimidin-1-yl)piperidin-1-yl)prop-2-en-1-one]
CN(C)C/C=C/C(=O)N1CCC(n2ncc3ncnc(Oc4ccc(Oc5ccccc5)cc4)c32)CC1 [Compound 14, (E)-4-(dimethylamino)-1-(4-(7-(4-phenoxyphenoxy)-1H-pyrazolo[4,3-d]pyrimidin-1-yl)piperidin-1-yl)but-2-en-1-one]
C=CC(=O)N1CCCC(Cn2ccc3ncnc(Oc4ccc(Oc5ccccc5)cc4)c32)C1 (centres unmarked) [Compound 15, 1-(3-((4-(4-phenoxyphenoxy)-5H-pyrrolo[3,2-d]pyrimidin-5-yl)methyl)piperidin-1-yl)prop-2-en-1-one]
C=CC(=O)N1CC(n2ccc3ncnc(Oc4ccc(OCc5ccccc5)cc4)c32)C1 [Compound 16, 1-(3-(4-(4-(benzyloxy)phenoxy)-5H-pyrrolo[3,2-d]pyrimidin-5-yl)azetidin-1-yl)prop-2-en-1-one]
C=CC(=O)N1CC(n2ccc3ncnc(Oc4ccc(Cc5ccccc5)cc4)c32)C1 [Compound 17, 1-(3-(4-(4-benzylphenoxy)-5H-pyrrolo[3,2-d]pyrimidin-5-yl)azetidin-1-yl)prop-2-en-1-one]
CN(C)C/C=C/C(=O)N1CC[C@H](n2ccc3ncnc(Oc4ccc(Oc5ccccc5)cc4)c32)C1 [Compound 18, (S,E)-4-(dimethylamino)-1-(3-(4-(4-phenoxyphenoxy)-5H-pyrrolo[3,2-d]pyrimidin-5-yl)pyrrolidin-1-yl)but-2-en-1-one]
CN(C)C/C=C/C(=O)N1CC(n2ccc3ncnc(Oc4ccc(Oc5ccccc5)cc4)c32)C1 [Compound 19, (E)-4-(dimethylamino)-1-(3-(4-(4-phenoxyphenoxy)-5H-pyrrolo[3,2-d]pyrimidin-5-yl)azetidin-1-yl)but-2-en-1-one]
C=CC(=O)N1CC(Cn2ccc3ncnc(Oc4ccc(Oc5ccccc5)cc4)c32)C1 [Compound 20, 1-(3-((4-(4-phenoxyphenoxy)-5H-pyrrolo[3,2-d]pyrimidin-5-yl)methyl)azetidin-1-yl)prop-2-en-1-one]
C=CC(=O)N[C@H]1C[C@H](n2ncc3ncnc(Oc4ccc(Oc5ccccc5)cc4)c32)C1 [Compound 21, N-((1r,3r)-3-(7-(4-phenoxyphenoxy)-1H-pyrazolo[4,3-d]pyrimidin-1-yl)cyclobutyl)acrylamide]
C=CC(=O)N1CC(n2ccc3ncnc(Oc4ccc(Nc5ccccc5)cc4)c32)C1 [Compound 22, 1-(3-(4-(4-(phenylamino)phenoxy)-5H-pyrrolo[3,2-d]pyrimidin-5-yl)azetidin-1-yl)prop-2-en-1-one]
C=CC(=O)N1CC(n2ncc3ncc(-c4ccc(Oc5ccccc5)cc4)nc32)C1 [Compound 23, 1-(3-(6-(4-phenoxyphenyl)-1H-pyrazolo[3,4-b]pyrazin-1-yl)azetidin-1-yl)prop-2-en-1-one]
CN(C)C/C=C/C(=O)N1CC(n2ccc3ncc(-c4ccc(Oc5ccccc5)cc4)nc32)C1 [Compound 24, (E)-4-(dimethylamino)-1-(3-(3-(4-phenoxyphenyl)-5H-pyrrolo[2,3-b]pyrazin-5-yl)azetidin-1-yl)but-2-en-1-one]
C=CC(=O)N1CC[C@H]1Cn1ccc2ncnc(Oc3ccc(Oc4ccccc4)cc3)c21 [Compound 25, (S)-1-(2-((4-(4-phenoxyphenoxy)-5H-pyrrolo[3,2-d]pyrimidin-5-yl)methyl)azetidin-1-yl)prop-2-en-1-one]
C=CC(=O)NCCCn1ccc2ncnc(Oc3ccc(Oc4ccccc4)cc3)c21 [Compound 26, N-(3-(4-(4-phenoxyphenoxy)-5H-pyrrolo[3,2-d]pyrimidin-5-yl)propyl)acrylamide]
C=CC(=O)N1CC(n2ccc3ncnc(Oc4ccc(Oc5ccc(F)cc5)cc4)c32)C1 [Compound 27, 1-(3-(4-(4-(4-fluorophenoxy)phenoxy)-5H-pyrrolo[3,2-d]pyrimidin-5-yl)azetidin-1-yl)prop-2-en-1-one]
C=CC(=O)N1CC2(CC(n3ccc4ncnc(Oc5ccc(Oc6ccccc6)cc5)c43)C2)C1 [Compound 28, 1-(6-(4-(4-phenoxyphenoxy)-5H-pyrrolo[3,2-d]pyrimidin-5-yl)-2-azaspiro[3.3]heptan-2-yl)prop-2-en-1-one]
C=CC(=O)N1CCC(Cn2ccc3ncnc(Oc4ccc(Oc5ccccc5)cc4)c32)C1 (centres unmarked) [Compound 29, 1-(3-((4-(4-phenoxyphenoxy)-5H-pyrrolo[3,2-d]pyrimidin-5-yl)methyl)pyrrolidin-1-yl)prop-2-en-1-one]
